Inconclusive results and toxic doses are left out.
Test system: L1210 leukemia ip in BDF1 mice, survival T/C
Test: NCI In Vivo Anticancer Drug Screen. Data for tumor model L1210 Leukemia (intraperitoneal) in B6D2F1 (BDF1) mice
Details: higher = longer survival
Outline: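 Tumor was transplanted into mice, which were then dosed with test compound or vehicle alone. Survival was recorded for each group, and the treated figure was expressed relative to the control figure.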

O=C1CN=C(c2ccc[nH]2)c2cc(Cl)ccc2N1
T/C (endpoint: mean survival time, dose: 100.0 mg/kg/injection, schedule: Q03HX008 (oral), vehicle: saline with Tween-80): 123 % of control | T/C (endpoint: mean survival time, dose: 100.0 mg/kg/injection, schedule: Q03HX024 (oral), vehicle: saline with Tween-80): 121 % of control | T/C (endpoint: mean survival time, dose: 100.0 mg/kg/injection, schedule: Q04DX003 (ip), vehicle: other): 105 % of control | T/C (endpoint: mean survival time, dose: 100.0 mg/kg/injection, schedule: Q04DX003 (oral), vehicle: saline with Tween-80): 109 % of control | T/C (endpoint: mean survival time, dose: 100.0 mg/kg/injection, schedule: Q08DX002 (ip), vehicle: other): 115 % of control | T/C (endpoint: mean survival time, dose: 100.0 mg/kg/injection, schedule: Q08DX002 (oral), vehicle: saline with Tween-80): 103 % of control | T/C (endpoint: mean survival time, dose: 102.0 mg/kg/injection, schedule: Q01DX007 (oral), vehicle: other): 108 % of control | T/C (endpoint: mean survival time, dose: 112.0 mg/kg/injection, schedule: Q01DX015 (ip), vehicle: other): 158 % of control | T/C (endpoint: mean survival time, dose: 112.5 mg/kg/injection, schedule: Q01DX Z (ip), vehicle: carboxymethylcellulose (CMC)): 170 % of control | T/C (endpoint: mean survival time, dose: 120.0 mg/kg/injection, schedule: Q01DX009 (ip), vehicle: other): 116 % of control | T/C (endpoint: mean survival time, dose: 156.0 mg/kg/injection, schedule: Q01DX007 (oral), vehicle: other): 112 % of control | T/C (endpoint: mean survival time, dose: 180.0 mg/kg/injection, schedule: Q01DX009 (ip), vehicle: other): 155 % of control | T/C (endpoint: mean survival time, dose: 200.0 mg/kg/injection, schedule: Q01DX001 (ip), vehicle: other): 106 % of control | T/C (endpoint: mean survival time, dose: 200.0 mg/kg/injection, schedule: Q01DX001 (iv), vehicle: other): 108 % of control | T/C (endpoint: mean survival time, dose: 200.0 mg/kg/injection, schedule: Q01DX001 (oral), vehicle: saline with Tween-80): 116 % of control | T/C (endpoint: mean survival time, dose: 200.0 mg/kg/injection, schedule: Q01DX009 (oral), vehicle: saline with Tween-80): 109 % of control | T/C (endpoint: mean survival time, dose: 200.0 mg/kg/injection, schedule: Q04DX003 (ip), vehicle: other): 114 % of control | T/C (endpoint: mean survival time, dose: 200.0 mg/kg/injection, schedule: Q04DX003 (oral), vehicle: saline with Tween-80): 115 % of control | T/C (endpoint: mean survival time, dose: 200.0 mg/kg/injection, schedule: Q08DX002 (ip), vehicle: other): 118 % of control | T/C (endpoint: mean survival time, dose: 200.0 mg/kg/injection, schedule: Q08DX002 (oral), vehicle: saline with Tween-80): 105 % of control | T/C (endpoint: mean survival time, dose: 225.0 mg/kg/injection, schedule: Q01DX Z (ip), vehicle: carboxymethylcellulose (CMC)): 86 % of control | T/C (endpoint: mean survival time, dose: 240.0 mg/kg/injection, schedule: Q01DX007 (oral), vehicle: other): 119 % of control | T/C (endpoint: mean survival time, dose: 400.0 mg/kg/injection, schedule: Q01DX001 (ip), vehicle: other): 112 % of control | T/C (endpoint: mean survival time, dose: 400.0 mg/kg/injection, schedule: Q01DX001 (iv), vehicle: other): 109 % of control | T/C (endpoint: mean survival time, dose: 400.0 mg/kg/injection, schedule: Q01DX001 (oral), vehicle: saline with Tween-80): 108 % of control | T/C (endpoint: mean survival time, dose: 400.0 mg/kg/injection, schedule: Q01DX009 (ip), vehicle: Klucel (hydroxypropylcellulose) (HPC)): 109 % of control | T/C (endpoint: mean survival time, dose: 400.0 mg/kg/injection, schedule: Q01DX009 (ip), vehicle: water): 108 % of control | T/C (endpoint: mean survival time, dose: 400.0 mg/kg/injection, schedule: Q01DX009 (oral), vehicle: saline with Tween-80): 105 % of control | T/C (endpoint: mean survival time, dose: 400.0 mg/kg/injection, schedule: Q04DX003 (ip), vehicle: other): 114 % of control | T/C (endpoint: mean survival time, dose: 400.0 mg/kg/injection, schedule: Q08DX002 (ip), vehicle: other): 109 % of control | T/C (endpoint: mean survival time, dose: 400.0 mg/kg/injection, schedule: Q08DX002 (oral), vehicle: saline with Tween-80): 109 % of control | T/C (endpoint: mean survival time, dose: 540.0 mg/kg/injection, schedule: Q01DX001 (oral), vehicle: other): 110 % of control | T/C (endpoint: mean survival time, dose: 720.0 mg/kg/injection, schedule: Q01DX001 (oral), vehicle: other): 110 % of control | T/C (endpoint: mean survival time, dose: 800.0 mg/kg/injection, schedule: Q08DX002 (oral), vehicle: saline with Tween-80): 121 % of control | T/C (endpoint: median survival time, dose: 2.0 mg/kg/injection, schedule: Q03HX008 (ip), vehicle: clinical formulation): 95 % of control | T/C (endpoint: median survival time, dose: 32.0 mg/kg/injection, schedule: Q04DX003 (ip), vehicle: clinical formulation): 90 % of control | T/C (endpoint: median survival time, dose: 50.0 mg/kg/injection, schedule: Q01DX009 (ip), vehicle: steriod suspending solution): 100 % of control | T/C (endpoint: median survival time, dose: 50.0 mg/kg/injection, schedule: Q01DX009 (sc), vehicle: steriod suspending solution): 100 % of control | T/C (endpoint: median survival time, dose: 64.0 mg/kg/injection, schedule: Q01DX001 (ip), vehicle: clinical formulation): 95 % of control | T/C (endpoint: median survival time, dose: 64.0 mg/kg/injection, schedule: Q04DX003 (ip), vehicle: clinical formulation): 100 % of control | T/C (endpoint: median survival time, dose: 100.0 mg/kg/injection, schedule: Q01DX001 (ip), vehicle: acid diluted with saline): 100 % of control | T/C (endpoint: median survival time, dose: 100.0 mg/kg/injection, schedule: Q01DX009 (ip), vehicle: steriod suspending solution): 100 % of control | T/C (endpoint: median survival time, dose: 100.0 mg/kg/injection, schedule: Q01DX009 (sc), vehicle: steriod suspending solution): 100 % of control | T/C (endpoint: median survival time, dose: 200.0 mg/kg/injection, schedule: Q01DX001 (ip), vehicle: acid diluted with saline): 95 % of control | T/C (endpoint: median survival time, dose: 200.0 mg/kg/injection, schedule: Q01DX009 (ip), vehicle: steriod suspending solution): 122 % of control | T/C (endpoint: median survival time, dose: 200.0 mg/kg/injection, schedule: Q01DX009 (sc), vehicle: steriod suspending solution): 100 % of control | T/C (endpoint: median survival time, dose: 400.0 mg/kg/injection, schedule: Q01DX009 (ip), vehicle: steriod suspending solution): 150 % of control | T/C (endpoint: median survival time, dose: 400.0 mg/kg/injection, schedule: Q01DX009 (sc), vehicle: steriod suspending solution): 122 % of control | T/C (endpoint: median survival time, dose: 800.0 mg/kg/injection, schedule: Q01DX009 (ip), vehicle: steriod suspending solution): 88 % of control

From PubChem BioAssay AID248 (DTP/NCI, 2004)
